Measurements published in patent US12435060B2, “Acylamino bridged heterocyclic compound, and composition and application thereof” (BEIJING SCITECH-MQ PHARMACEUTICALS LIMITED, priority 2019, dated 2025).

Tested on: HT29 cells
Assay: Inhibition of cell necrosis (CCK8 method), induced programmed necrosis of HT29 cells
Assay type: cell-based
Conditions: Homo sapiens, HT-29; rescue from necrosis induced by TNF-α 20 ng/mL, AT-406 1 μM, Z-VAD-FMK 20 μM; 16-20 hours; CCK-8, OD 450 nm
Summary of the method: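 Rescue from programmed necrosis was scored by CCK-8 absorbance at 450 nm after 16-20 h of TNF-α (20 ng/mL), AT-406 (1 μM) and Z-VAD-FMK (20 μM) at 37 °C, 5% CO2. HT29 cells had received compound 30 min earlier across nine 4-fold dilutions (top 25000 nM final). IC50 came from % inhibition relative to uninduced and induced-only wells.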

| Structure (SMILES) | IC50 |
| --- | --- |
| O=C(Nc1cc(-c2cc(OCC3CCOCC3)ccc2C(F)(F)F)ncn1)c1nnc(Cc2ccccc2)[nH]1 [Example 454, 5-benzyl-N-(6-(5-((tetrahydro-2H-pyran-4-yl)methoxy)-2-(trifluoromethyl)phenyl)pyrimidin-4-yl)-4H-1,2,4-triazole-3-carboxamide] | ≤ 100 nM |
| CC(C)(O)COc1ccc(Cl)c(-c2ccnc(NC(=O)c3nnc(Cc4ccccc4)[nH]3)c2)c1 [Example 363, 5-benzyl-N-(4-(2-chloro-5-(2-hydroxyl-2-methylpropoxy)phenyl)pyridin-2-yl)-4H-1,2,4-triazole-3-carboxamide] | ≤ 100 nM |
| Cc1ccc(OCCCC(C)(C)O)cc1-c1ccnc(NC(=O)c2nnc(Cc3ccccc3)[nH]2)c1 [Example 160, 5-benzyl-N-(4-(5-((4-hydroxy-4-methylpentyl)oxy)-2-methylphenyl)pyridin-2-yl)-4H-1,2,4-triazole-3-carboxamide] | ≤ 100 nM |
| Cc1cnc(NC(=O)c2nnc(Cc3ccccc3F)[nH]2)cc1-c1cc(OCCCC(C)(C)O)ccc1Cl [Example 413, N-(4-(2-chloro-5-((4-hydroxy-4-methylpentyl)oxy)phenyl)-5-methylpyridin-2-yl)-5-(2-fluorobenzyl)-4H-1,2,4-triazole-3-carboxamide] | 100 to 1000 nM |
| Cc1ccc(OCCCCC#N)cc1-c1ccnc(NC(=O)c2nnc(Cc3ccccc3)[nH]2)c1 [Example 91, 5-benzyl-N-(4-(5-(4-cyanobutoxy)-2-methylphenyl)pyridin-2-yl)-4H-1,2,4-triazole-3-carboxamide] | ≤ 100 nM |
| CC(C)(O)CCCOc1ccc(Cl)c(-c2ccnc(NC(=O)c3nnc(Cc4cccc(C(F)(F)F)c4F)[nH]3)c2)c1 [Example 346, N-(4-(2-chloro-5-((4-hydroxy-4-methylpentyl)oxy)phenyl)pyridin-2-yl)-5-(2-fluoro-3-(trifluoromethyl)benzyl)-4H-1,2,4-triazole-3-carboxamide] | 100 to 1000 nM |
| Cc1ccc(OCC2CCOCC2)cc1-c1cc(NC(=O)c2nnc(Cc3ccccc3F)[nH]2)ncc1Cl [Example 249, N-(5-chloro-4-(2-methyl-5-((tetrahydro-2H-pyran-4-yl)methoxy)phenyl)pyridin-2-yl)-5-(2-fluorobenzyl)-4H-1,2,4-triazole-3-carboxamide] | 100 to 1000 nM |
| CC(C)(O)COc1ccc(Cl)c(-c2ccnc(NC(=O)c3nnc(CC4CCCCC4)[nH]3)c2)c1 [Example 366, N-(4-(2-chloro-5-(2-hydroxyl-2-methylpropoxy)phenyl)pyridin-2-yl)-5-(cyclohexylmethyl)-4H-1,2,4-triazole-3-carboxamide] | ≤ 100 nM |
| Cc1ccc(OCCN2CCCCC2)cc1-c1ccnc(NC(=O)c2nnc(Cc3cc(F)cc(F)c3)[nH]2)c1 [Example 232, 5-(3,5-difluorobenzyl)-N-(4-(2-methyl-5-(2-(piperidin-1-yl)ethoxy)phenyl)pyridin-2-yl)-4H-1,2,4-triazole-3-carboxamide] | 100 to 1000 nM |
| Cc1ccc(OCCC2CC2)cc1-c1ccnc(NC(=O)c2nnc(Cc3ccccc3)[nH]2)c1 [Example 69, 5-benzyl-N-(4-(5-(2-cyclopropylethoxy)-2-methylphenyl)pyridin-2-yl)-4H-1,2,4-triazole-3-carboxamide] | ≤ 100 nM |
| O=C(Nc1cc(-c2cc(OCCCCO)ccc2Cl)ccn1)c1nnc(Cc2ccccc2)[nH]1 [Example 371, 5-benzyl-N-(4-(2-chloro-5-(4-hydroxybutoxy)phenyl)pyridin-2-yl)-4H-1,2,4-triazole-3-carboxamide] | ≤ 100 nM |
| Cc1cnc(NC(=O)c2nnc(Cc3ccccc3F)[nH]2)cc1-c1cc(OCC2CCOCC2)ccc1Cl [Example 426, N-(4-(2-chloro-5-((tetrahydro-2H-pyran-4-yl)methoxy)phenyl)-5-methylpyridin-2-yl)-5-(2-fluorobenzyl)-4H-1,2,4-triazole-3-carboxamide] | 100 to 1000 nM |
| CCOCCOc1ccc(Cl)c(-c2ccnc(NC(=O)c3nnc(CC4CCCCC4)[nH]3)c2)c1 [Example 386, N-(4-(2-chloro-5-(2-ethoxyethoxy)phenyl)pyridin-2-yl)-5-(cyclohexylmethyl)-4H-1,2,4-triazole-3-carboxamide] | ≤ 100 nM |
| COCCOc1ccc(C(F)(F)F)c(-c2ccnc(NC(=O)c3nnc(CC4CCCCC4)[nH]3)c2)c1 [Example 282, 5-(cyclohexylmethyl)-N-(4-(5-(2-methoxyethoxy)-2-(trifluoromethyl)phenyl)pyridin-2-yl)-4H-1,2,4-triazole-3-carboxamide] | ≤ 100 nM |
| Cc1ccc(OCCCC(C)(C)O)cc1-c1cc(NC(=O)c2nnc(Cc3ccccc3F)[nH]2)ncc1F [Example 492, N-(5-fluoro-4-(5-((4-hydroxy-4-methylpentyl)oxy)-2-methylphenyl)pyridin-2-yl)-5-(2-fluorobenzyl)-4H-1,2,4-triazole-3-carboxamide] | ≤ 100 nM |
| Cc1ncccc1-c1ccnc(NC(=O)c2nnc(Cc3ccccc3)[nH]2)c1 [Example 20, 5-benzyl-N-(2-methyl-[3,4′-bipyridin]-2′-yl)-4H-1,2,4-triazole-3-carboxamide] | 100 to 1000 nM |

| Structure (SMILES) | IC50 |
| --- | --- |
| CC(C)Oc1ncccc1-c1ccnc(NC(=O)c2nnc(Cc3ccccc3)[nH]2)c1 [Example 23, 5-benzyl-N-(2-isopropyloxy-[3,4′-bipyridin]-2′-yl)-4H-1,2,4-triazole-3-carboxamide] | > 10000 nM |
| COCCOc1ccc(C(F)(F)F)c(-c2ccnc(NC(=O)c3nnc(Cc4ccccc4F)[nH]3)c2)c1 [Example 280, 5-(2-fluorobenzyl)-N-(4-(5-(2-methoxyethoxy)-2-(trifluoromethyl)phenyl)pyridin-2-yl)-4H-1,2,4-triazole-3-carboxamide] | ≤ 100 nM |
| CCOCCOc1ccc(Cl)c(-c2ccnc(NC(=O)c3nnc(Cc4ccccc4F)[nH]3)c2)c1 [Example 384, 5-(2-fluorobenzyl)-N-(4-(2-chloro-5-(2-ethoxyethoxy)phenyl)pyridin-2-yl)-4H-1,2,4-triazole-3-carboxamide] | ≤ 100 nM |
| Cc1ccc(OCCCC(C)(C)O)cc1-c1cc(NC(=O)c2nnc(Cc3cc(F)cc(F)c3)[nH]2)ncn1 [Example 437, 5-(3,5-difluorobenzyl)-N-(6-(5-((4-hydroxy-4-methylpentyl)oxy)-2-methylphenyl)pyrimidin-4-yl)-4H-1,2,4-triazole-3-carboxamide] | 100 to 1000 nM |
| CC(C)(C)OCCOc1ccc(Cl)c(-c2ccnc(NC(=O)c3nnc(CC4CCCCC4)[nH]3)c2)c1 [Example 394, N-(4-(5-(2-(tert-butoxy)ethoxy)-2-chlorophenyl)pyridin-2-yl)-5-(cyclohexylmethyl)-4H-1,2,4-triazole-3-carboxamide] | ≤ 100 nM |
| O=C(Nc1cc(C2CCOCC2)ccn1)c1nnc(Cc2ccccc2)[nH]1 [Example 49, 5-benzyl-N-(4-(tetrahydro-2H-pyran-4-yl)pyridin-2-yl)-4H-1,2,4-triazole-3-carboxamide] | 1000 to 10000 nM |
| Cc1ccc(OCCCCC(C)(C)O)cc1-c1cc(NC(=O)c2nnc(CC3CCCCC3)[nH]2)ncc1Cl [Example 248, 5-(cyclohexylmethyl)-N-(5-chloro-4-(5-((5-hydroxyl-5-methylhexyl)oxy)-2-methylphenyl)pyridin-2-yl)-4H-1,2,4-triazole-3-carboxamide] | 100 to 1000 nM |
| Cc1ccc(Cl)cc1-c1ccnc(NC(=O)c2nnc(Cc3ccccc3)[nH]2)c1 [Example 34, 5-benzyl-N-(4-(5-chloro-2-methylphenyl)pyridin-2-yl)-4H-1,2,4-triazole-3-carboxamide] | 100 to 1000 nM |
| Cc1ccc(OCCCC(C)(C)O)cc1-c1ccnc(NC(=O)c2nnc(Cc3cc(F)cc(Cl)c3)[nH]2)c1 [Example 205, 5-(5-chloro-3-fluorobenzyl)-N-(4-(5-((4-hydroxy-4-methylpentyl)oxy)-2-methylphenyl)pyridin-2-yl)-4H-1,2,4-triazole-3-carboxamide] | 100 to 1000 nM |
| O=C(Nc1cc(-c2cc(OCC3CCOCC3)ccc2C(F)(F)F)ccn1)c1nnc(CC2CCCCC2)[nH]1 [Example 304, 5-(cyclohexylmethyl)-N-(4-(5-((tetrahydro-2H-pyran-4-yl)methoxy)-2-(trifluoromethyl)phenyl)pyridin-2-yl)-4H-1,2,4-triazole-3-carboxamide] | ≤ 100 nM |
| Cc1ccc(OCCC2CCOCC2)cc1-c1ccnc(NC(=O)c2nnc(CC3CCCCC3)[nH]2)c1 [Example 89, 5-(cyclohexylmethyl)-N-(4-(2-methyl-5-(2-(tetrahydro-2H-pyran-4-yl)ethoxy)phenyl)pyridin-2-yl)-4H-1,2,4-triazole-3-carboxamide] | ≤ 100 nM |
| Cc1ccc(CCC(C)(C)O)cc1-c1ccnc(NC(=O)c2nnc(Cc3ccccc3)[nH]2)c1 [Example 482, 5-benzyl-N-(4-(5-(3-hydroxyl-3-methylbutyl)-2-methylphenyl)pyridin-2-yl)-4H-1,2,4-triazole-3-carboxamide] | ≤ 100 nM |
| Cc1ccc(S(=O)(=O)CCCC(C)(C)O)cc1-c1ccnc(NC(=O)c2nnc(CC3CCCC3)[nH]2)c1 [Example 475, 5-(cyclopentylmethyl)-N-(4-(5-((4-hydroxy-4-methylpentyl)sulfonyl)-2-methylphenyl)pyridin-2-yl)-4H-1,2,4-triazole-3-carboxamide] | ≤ 100 nM |
| Cc1ccc(OCCCC(C)(C)O)cc1-c1ccnc(NC(=O)c2nnc(Cc3cc(C(F)(F)F)ccc3F)[nH]2)c1 [Example 211, 5-(2-fluoro-5-trifluoromethylbenzyl)-N-(4-(5-((4-hydroxy-4-methylpentyl)oxy)-2-methylphenyl)pyridin-2-yl)-4H-1,2,4-triazole-3-carboxamide] | 100 to 1000 nM |
| COCCCOc1cccc(-c2ccnc(NC(=O)c3nnc(Cc4ccccc4)[nH]3)c2)c1C [Example 98, 5-benzyl-N-(4-(3-(3-methoxypropoxy)-2-methylphenyl)pyridin-2-yl)-4H-1,2,4-triazole-3-carboxamide] | 100 to 1000 nM |
